Data on 28 molecules can be found in patent publication US9376436B2, “2-(pyridin-2yl)-1, 7-diaza-spiro [4.4] nonane-6-one compound as voltage-gated sodium channels modulators” (CONVERGENCE PHARMACEUTICALS LIMITED, priority 2011, dated 2016).

This experiment concerns the target T1, hNaV1.7 (Homo sapiens, UniProt Q15858).
T1 construct: expressed in transfected cells; host or cells: HEK293
Description: QPatch NaV1.7 assay (whole-cell patch clamp, QPatch16x). In kind it is cell-based. To be noted: HEK293-hNaV1.7 cells. The method, boiled down: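 HEK293 cells expressing hNaV1.7 recorded by automated whole-cell patch clamp (CsF internal, pH 7.3). Peak currents from 20 ms steps to 0 mV measured at holding potentials of −90 mV and V1/2 SSI; four-point cumulative concentrations, 120 s each, Hill fits gave pIC50 at each potential.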
(In general: In patch-clamp work, channel activity is measured electrically.)

The mark [1] stands for this setting: holding voltage V1/2 SSI (half of channels inactivated), read-out: QP Nav1.7 SSI vhalf pIC50 (converted).
The mark [2] stands for this setting: holding voltage −90 mV (most channels closed), read-out: QP Nav1.7 −90 mV pIC50 (converted).

Structures are written as SMILES. Where a name gives a salt, the structure may show the parent alone. Read-outs that look alike come from different tables or passages of the source.

T1 sequence (Q15858 whole entry): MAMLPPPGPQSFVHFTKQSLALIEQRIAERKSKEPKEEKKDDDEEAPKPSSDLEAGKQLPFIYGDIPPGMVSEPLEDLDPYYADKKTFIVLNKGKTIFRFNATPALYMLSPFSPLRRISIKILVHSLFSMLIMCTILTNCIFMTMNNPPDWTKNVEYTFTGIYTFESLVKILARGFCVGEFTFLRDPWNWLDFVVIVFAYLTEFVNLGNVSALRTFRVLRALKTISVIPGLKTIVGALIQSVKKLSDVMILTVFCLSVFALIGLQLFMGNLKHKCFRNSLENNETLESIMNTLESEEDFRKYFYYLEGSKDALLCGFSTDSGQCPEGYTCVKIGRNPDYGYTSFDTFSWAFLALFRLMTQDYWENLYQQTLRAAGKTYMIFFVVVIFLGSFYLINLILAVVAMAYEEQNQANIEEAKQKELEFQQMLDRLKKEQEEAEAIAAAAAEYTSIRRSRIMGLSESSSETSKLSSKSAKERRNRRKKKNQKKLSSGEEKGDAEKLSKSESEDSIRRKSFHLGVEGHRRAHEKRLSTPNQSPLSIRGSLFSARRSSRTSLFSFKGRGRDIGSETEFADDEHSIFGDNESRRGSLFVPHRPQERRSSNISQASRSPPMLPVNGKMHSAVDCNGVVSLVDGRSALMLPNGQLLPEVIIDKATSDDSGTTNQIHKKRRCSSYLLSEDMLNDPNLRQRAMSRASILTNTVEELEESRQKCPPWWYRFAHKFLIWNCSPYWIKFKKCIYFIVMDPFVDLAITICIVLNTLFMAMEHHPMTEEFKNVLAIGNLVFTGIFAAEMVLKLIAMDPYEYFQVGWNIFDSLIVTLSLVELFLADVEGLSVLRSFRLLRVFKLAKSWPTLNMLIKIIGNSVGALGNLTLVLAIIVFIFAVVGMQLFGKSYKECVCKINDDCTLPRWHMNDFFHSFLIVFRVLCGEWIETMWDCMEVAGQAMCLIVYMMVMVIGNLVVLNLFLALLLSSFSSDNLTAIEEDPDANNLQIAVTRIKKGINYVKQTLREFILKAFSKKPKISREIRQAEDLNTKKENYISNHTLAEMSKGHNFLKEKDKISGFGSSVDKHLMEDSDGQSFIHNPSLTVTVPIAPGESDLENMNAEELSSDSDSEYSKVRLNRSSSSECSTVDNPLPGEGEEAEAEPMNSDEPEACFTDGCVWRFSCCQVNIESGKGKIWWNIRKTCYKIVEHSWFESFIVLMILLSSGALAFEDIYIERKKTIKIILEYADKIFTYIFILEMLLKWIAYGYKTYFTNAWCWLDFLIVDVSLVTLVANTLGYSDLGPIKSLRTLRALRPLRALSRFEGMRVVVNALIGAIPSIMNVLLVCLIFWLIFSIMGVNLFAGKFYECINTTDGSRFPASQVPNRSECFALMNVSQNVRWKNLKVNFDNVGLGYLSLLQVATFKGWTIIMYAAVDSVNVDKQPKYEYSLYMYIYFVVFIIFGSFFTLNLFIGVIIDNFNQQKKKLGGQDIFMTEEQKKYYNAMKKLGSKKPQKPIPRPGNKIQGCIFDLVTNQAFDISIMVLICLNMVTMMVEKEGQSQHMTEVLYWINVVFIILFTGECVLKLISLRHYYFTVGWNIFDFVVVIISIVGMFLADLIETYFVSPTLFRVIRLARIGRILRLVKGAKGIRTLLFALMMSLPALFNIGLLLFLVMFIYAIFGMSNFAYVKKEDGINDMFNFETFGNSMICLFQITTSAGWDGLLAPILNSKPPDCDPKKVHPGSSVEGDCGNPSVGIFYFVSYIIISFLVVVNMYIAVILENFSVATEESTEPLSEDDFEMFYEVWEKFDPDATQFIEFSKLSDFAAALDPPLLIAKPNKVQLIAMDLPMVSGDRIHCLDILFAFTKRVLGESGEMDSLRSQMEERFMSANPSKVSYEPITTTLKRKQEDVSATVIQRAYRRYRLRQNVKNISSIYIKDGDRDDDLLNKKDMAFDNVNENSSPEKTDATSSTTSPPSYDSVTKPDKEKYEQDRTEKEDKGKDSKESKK

In the case of `CN1CCC[C@]2(CC[C@H](c3cc(-c4ccc(F)cc4)ccn3)N2)C1=O` [Example 74, (2R,5S)-2-[4-(4-Fluoro-phenyl)-pyridin-2-yl]-7-methyl-1,7-diaza-spiro[4.5]decan-6-one hydrochloride], the IC50 by setting is: under setting [1], 7.94 µM; under setting [2], 63.1 µM.

As to `CN1CC[C@@]2(CC[C@H](c3cc(-c4cccc(C(F)(F)F)c4)ccn3)N2)C1=O` [Example 75, (2R,5S)-7-Methyl-2-[4-[3-(trifluoromethyl)phenyl]-2-pyridyl]-1,7-diazaspiro[4.4]nonan-6-one hydrochloride], the IC50 reads like this: under setting [1], 20 µM; under setting [2], 126 µM.

On to `CCOc1ccc(-c2ccnc([C@H]3CC[C@@]4(CCN(C)C4=O)N3)c2)cc1` [Example 76, (2R,5S)-2-[4-(4-Ethoxyphenyl)-2-pyridyl]-7-methyl-1,7-diazaspiro[4.4]nonan-6-one hydrochloride], for which the IC50 under setting [1] was 3.98 µM and the IC50 under setting [2] was 63.1 µM.

In the case of `CN1CC[C@@]2(CC[C@H](c3cc(-c4cc(F)cc(F)c4)ccn3)N2)C1=O` [Example 77, (2R,5S)-2-[4-(3,5-Difluorophenyl)-2-pyridyl]-7-methyl-1,7-diazaspiro[4.4]nonan-6-one hydrochloride], the IC50 runs as follows: under setting [1], 31.6 µM; under setting [2], 316 µM.

For the molecule `Cc1cscc1-c1ccnc([C@H]2CC[C@@]3(CCN(C)C3=O)N2)c1` [Example 78, (2R,5S)-7-Methyl-2-[4-(4-methyl-3-thienyl)-2-pyridyl]-1,7-diazaspiro[4.4]nonan-6-one hydrochloride], the IC50 reads like this: under setting [1], 12.6 µM; under setting [2], 158 µM.

With `CN1CC[C@@]2(CC[C@H](c3cc(-c4ccc5c(ccn5C)c4)ccn3)N2)C1=O` [Example 79, (2R,5S)-7-Methyl-2-[4-(1-methylindol-5-yl)-2-pyridyl]-1,7-diazaspiro[4.4]nonan-6-one hydrochloride], the IC50 is, setting by setting: under setting [1], 31.6 µM; under setting [2], 398 µM.

Consider `COc1cccc(-c2ccnc([C@H]3CC[C@@]4(CCN(C)C4=O)N3)c2)c1Cl` [Example 80, (2R,5S)-2-[4-(2-Chloro-3-methoxy-phenyl)-2-pyridyl]-7-methyl-1,7-diazaspiro[4.4]nonan-6-one hydrochloride], for which the IC50 runs as follows: under setting [1], 200 µM; under setting [2], 316 µM.

With `CN1CC[C@@]2(CC[C@H](c3cc(-c4cccc5c4OC(F)(F)O5)ccn3)N2)C1=O` [Example 81, (2R,5S)-2-[4-(2,2-Difluoro-1,3-benzodioxol-4-yl)-2-pyridyl]-7-methyl-1,7-diazaspiro[4.4]nonan-6-one hydrochloride], the IC50 is 3.16 µM under setting [1] and 200 µM under setting [2].

For `CCOc1cccc(-c2ccnc([C@H]3CC[C@@]4(CCN(C)C4=O)N3)c2)c1` [Example 82, (2R,5S)-2-[4-(3-Ethoxyphenyl)-2-pyridyl]-7-methyl-1,7-diazaspiro[4.4]nonan-6-one hydrochloride], the IC50 is 7.94 µM under setting [1] and 200 µM under setting [2].

As to `COc1ccc(Cl)c(-c2ccnc([C@H]3CC[C@@]4(CCN(C)C4=O)N3)c2)c1` [Example 83, (2R,5S)-2-[4-(2-Chloro-5-methoxy-phenyl)-2-pyridyl]-7-methyl-1,7-diazaspiro[4.4]nonan-6-one hydrochloride], the IC50 runs as follows: under setting [1], 31.6 µM; under setting [2], 200 µM.

`CN1CC[C@@]2(CC[C@H](c3cc(-c4cc(OC(F)F)ccc4F)ccn3)N2)C1=O` [Example 84, (2R,5S)-2-[4-[5-(Difluoromethoxy)-2-fluoro-phenyl]-2-pyridyl]-7-methyl-1,7-diazaspiro[4.4]nonan-6-one hydrochloride]: the IC50 was 20 µM under setting [1] and 200 µM under setting [2].

In the case of `Cc1cc(-c2ccc(OC(C)C)cc2)cc([C@H]2CC[C@@]3(CCN(C)C3=O)N2)n1` [Example 85, (2R,5S)-2-[4-(4-Isopropoxyphenyl)-6-methyl-2-pyridyl]-7-methyl-1,7-diazaspiro[4.4]nonan-6-one hydrochloride], the IC50 by setting is: under setting [1], 0.316 µM; under setting [2], 10 µM.

For the molecule `Cc1cc(-c2ccc(OC(C)C)cc2)cc([C@@H]2CC[C@@]3(CCN(C)C3=O)N2)n1` [Example 86, (2S,5S)-2-[4-(4-Isopropoxyphenyl)-6-methyl-2-pyridyl]-7-methyl-1,7-diazaspiro[4.4]nonan-6-one hydrochloride], the IC50 was 10 µM under setting [1] and 100 µM under setting [2].

With `Cc1ccc(-c2cc(C)nc([C@H]3CC[C@@]4(CCN(C)C4=O)N3)c2)cc1` [Example 87, (2R,5S)-7-Methyl-2-[6-methyl-4-(p-tolyl)-2-pyridyl]-1,7-diazaspiro[4.4]nonan-6-one hydrochloride], the IC50 is 6.31 µM under setting [1] and 126 µM under setting [2].

Regarding `CCOc1ccc(-c2cc(C)nc([C@@H]3CC[C@@]4(CCN(C)C4=O)N3)c2)cc1` [Example 88, (2S,5S)-2-[4-(4-Ethoxyphenyl)-6-methyl-2-pyridyl]-7-methyl-1,7-diazaspiro[4.4]nonan-6-one hydrochloride], the IC50 is 31.6 µM under setting [1] and 316 µM under setting [2].

Consider `CCOc1ccc(-c2cc(C)nc([C@H]3CC[C@@]4(CCN(C)C4=O)N3)c2)cc1` [Example 89, (3R,5S)-3-[4-(4-Ethoxyphenyl)-6-methyl-2-pyridyl]-8-methyl-4,8-diazaspiro[4.4]nonan-9-one hydrochloride], for which the IC50 was 3.16 µM under setting [1] and 50.1 µM under setting [2].

Consider `COc1cc(C(F)(F)F)ccc1-c1cc(C)nc([C@H]2CC[C@]3(CCN(C)C3=O)N2)c1` [Example 90, (3R,5R)-3-[4-[2-Methoxy-4-(trifluoromethyl)phenyl]-6-methyl-2-pyridyl]-8-methyl-4,8-diazaspiro[4.4]nonan-9-one hydrochloride], for which the IC50 by setting is: under setting [1], 0.316 µM; under setting [2], 6.31 µM.

As to `COc1cc(C(F)(F)F)ccc1-c1cc(C)nc([C@@H]2CC[C@]3(CCN(C)C3=O)N2)c1` [Example 91, (3S,5R)-3-[4-[2-Methoxy-4-(trifluoromethyl)phenyl]-6-methyl-2-pyridyl]-8-methyl-4,8-diazaspiro[4.4]nonan-9-one hydrochloride], the IC50 is, setting by setting: under setting [1], 2 µM; under setting [2], 39.8 µM.

As to `CCOc1ccc(F)c(-c2cc(C)nc([C@@H]3CC[C@@]4(CCN(C)C4=O)N3)c2)c1` [Example 92, (2S,5S)-2-[4-(5-Ethoxy-2-fluoro-phenyl)-6-methyl-pyridin-2-yl]-7-methyl-1,7-diaza-spiro[4.4]nonan-6-one hydrochloride], the IC50 runs as follows: under setting [1], 2.51 µM; under setting [2], 39.8 µM.

As to `CCOc1ccc(F)c(-c2cc(C)nc([C@H]3CC[C@@]4(CCN(C)C4=O)N3)c2)c1` [Example 93, (2R,5S)-2-[4-(5-Ethoxy-2-fluoro-phenyl)-6-methyl-pyridin-2-yl]-7-methyl-1,7-diaza-spiro[4.4]nonan-6-one hydrochloride], the IC50 is, setting by setting: under setting [1], 3.98 µM; under setting [2], 39.8 µM.

As for `Cc1cc(-c2ccc(C(F)(F)F)cc2)cc([C@H]2CC[C@@]3(CCNC3=O)N2)n1` [Example 94, (2R,5S)-2-[6-Methyl-4-[4-(trifluoromethyl)phenyl]-2-pyridyl]-1,7-diazaspiro[4.4]nonan-6-one hydrochloride], the IC50 under setting [1] was 0.2 µM and the IC50 under setting [2] was 3.98 µM.

Take `Cc1cc(-c2ccc(C(F)(F)F)cc2)cc([C@@H]2CC[C@]3(CCNC3=O)N2)n1` [Example 95, (2S,5R)-2-[6-Methyl-4-[4-(trifluoromethyl)phenyl]-2-pyridyl]-1,7-diazaspiro[4.4]nonan-6-one hydrochloride]: the IC50 is 12.6 µM under setting [1] and 100 µM under setting [2].

For the molecule `Cc1cc(-c2ccc(C(F)(F)F)cc2)cc([C@H]2CC[C@]3(CCNC3=O)N2)n1` [Example 96, (2R,5R)-2-[6-Methyl-4-[4-(trifluoromethyl)phenyl]-2-pyridyl]-1,7-diazaspiro[4.4]nonan-6-one hydrochloride], the IC50 runs as follows: under setting [1], 3.16 µM; under setting [2], 20 µM.

Turning to `Cc1cc(-c2ccc(C(F)(F)F)cc2)cc([C@@H]2CC[C@@]3(CCNC3=O)N2)n1` [Example 97, (2S,5S)-2-[6-Methyl-4-[4-(trifluoromethyl)phenyl]-2-pyridyl]-1,7-diazaspiro[4.4]nonan-6-one hydrochloride], the IC50 under setting [1] is 1.26 µM and the IC50 under setting [2] was 20 µM.

For `Cc1cc(-c2ccc(C(F)(F)F)cc2)cc([C@@H]2CC[C@]3(CCCNC3=O)N2)n1` [Example 98, (2S,5S)-2-[6-Methyl-4-(4-trifluoromethyl-phenyl)-pyridin-2-yl]-1,7-diaza-spiro[4.5]decan-6-one hydrochloride], the IC50 was 0.631 µM under setting [1] and 25.1 µM under setting [2].

Consider `Cc1cc(-c2ccc(C(F)(F)F)cc2)cc([C@H]2CC[C@@]3(CCCNC3=O)N2)n1` [Example 99, (2R,5R)-2-[6-Methyl-4-(4-trifluoromethyl-phenyl)-pyridin-2-yl]-1,7-diaza-spiro[4.5]decan-6-one hydrochloride], for which the IC50 runs as follows: under setting [1], 1 µM; under setting [2], 15.8 µM.

`Cc1cc(-c2ccc(C(F)(F)F)cc2)cc([C@H]2CC[C@]3(CCCNC3=O)N2)n1` [Example 100, (2R,5S)-2-[6-Methyl-4-(4-trifluoromethyl-phenyl)-pyridin-2-yl]-1,7-diaza-spiro[4.5]decan-6-one hydrochloride]: the IC50 is 0.2 µM under setting [1] and 1 µM under setting [2].

Consider `Cc1cc(-c2ccc(C(F)(F)F)cc2)cc([C@@H]2CC[C@@]3(CCCNC3=O)N2)n1` [Example 101, (2S,5R)-2-[6-Methyl-4-(4-trifluoromethyl-phenyl)-pyridin-2-yl]-1,7-diaza-spiro[4.5]decan-6-one hydrochloride], for which the IC50 by setting is: under setting [1], 10 µM; under setting [2], 12.6 µM.
